Patent US20110092476A1, “Bicycloheteroaryl compounds as P2X7 modulators and uses thereof” (Renovis, Inc., priority 2006, published 2011)
In brackets after ≈: the same amount, converted by molar mass. Where two headings read alike, the source gives them in different places.

Experiments:
P2X7 receptor = molecular target: T1, P2X7 receptor (Homo sapiens, UniProt Q99572); assay: IL-1β release assay in differentiated THP-1 cells stimulated with BzATP (Example 9); type: cell-based; conditions: BzATP 250 uM; for inhibition at 0.3 µM: differentiated THP-1 cells, read-out: IL-1β % Inhib. @ 0.3 or 0.1 uM; for IC50: THP-1 cells, IL-1β by ELISA
T1 construct: host or cells: THP-1 cells differentiated with LPS and IFN-γ
T1 sequence (Q99572 1-595): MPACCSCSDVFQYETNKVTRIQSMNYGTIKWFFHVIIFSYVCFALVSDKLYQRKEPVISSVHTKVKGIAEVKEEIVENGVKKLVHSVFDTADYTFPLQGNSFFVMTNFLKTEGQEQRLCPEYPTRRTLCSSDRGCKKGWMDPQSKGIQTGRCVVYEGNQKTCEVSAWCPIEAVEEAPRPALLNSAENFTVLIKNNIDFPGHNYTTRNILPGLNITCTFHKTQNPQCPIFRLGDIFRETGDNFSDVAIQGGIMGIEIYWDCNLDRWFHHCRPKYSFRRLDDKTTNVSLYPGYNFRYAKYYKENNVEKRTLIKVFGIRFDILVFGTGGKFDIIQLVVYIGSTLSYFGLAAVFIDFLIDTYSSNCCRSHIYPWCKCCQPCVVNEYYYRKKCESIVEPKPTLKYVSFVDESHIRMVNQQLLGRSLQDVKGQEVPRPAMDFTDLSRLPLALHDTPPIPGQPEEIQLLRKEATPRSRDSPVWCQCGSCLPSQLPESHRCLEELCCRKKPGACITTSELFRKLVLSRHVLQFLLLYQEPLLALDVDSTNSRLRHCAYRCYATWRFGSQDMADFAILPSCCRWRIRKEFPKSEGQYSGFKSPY
Method in brief: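 THP-1 cells differentiated 16 h with 100 ng/mL LPS and 100 ng/mL IFN-γ, primed 2 h with fresh LPS, pretreated 30 min with compound, then stimulated 45 min with 250 uM BzATP (final). Supernatant IL-1β measured by ELISA; background-adjusted percent inhibition fitted to a four-parameter logistic for IC50.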

[1] = Determination of aqueous (kinetic) solubility; type: physicochemical; conditions: aqueous buffer, kinetic from dmso stock, buffer pH 7.4
Method: The mixture was vortexed for 1 hour and equilibrated overnight at room temperature. The mixture was filtered through a saturated filter and the filtrate was analyzed by LC/MS/MS.
For the purpose of Table 5, solubility of each compound is expressed as follows: […]

| inhibition at 0.3 µM (P2X7 receptor; 0.3 μM compound, "+" symbols) [%] | Structure (SMILES) | also measured |
| --- | --- | --- |
|  | O=C(Cc1ccc(C(F)(F)F)cc1)Nc1cccc2c(=O)n(CCO)ccc12 [Compound 7] | inhibition at 0.3 µM (P2X7 receptor; 0.3 μM compound (symbols +)): 26 to 50%; solubility [1]: < 25 µM |
|  | O=C(Cc1ccc(Cl)cc1Cl)Nc1cccc2c(=O)n(CCO)ccc12 [Compound 69] | inhibition at 0.3 µM (P2X7 receptor; 0.3 μM compound (symbols +)): > 76%; solubility [1]: < 25 µM |
|  | O=C(Cc1ccc(Cl)c(Cl)c1)Nc1cccc2c(=O)n(C(CO)CO)ccc12 [Compound 80] | inhibition at 0.3 µM (P2X7 receptor; 0.3 μM compound (symbols +)): > 76%; solubility [1]: > 75 µM |
| > 76 | C[C@@H](C(N)=O)n1ccc2c(NC(=O)Cc3ccc(Cl)cc3C(F)(F)F)cccc2c1=O [Compound 237, (S)-2-{5-[2-(4-Chloro-2-trifluoromethyl-phenyl)-acetylamino]-1-oxo-1H-isoquinolin-2-yl}-propionamide] | solubility [1]: 26 to 50 µM (≈ 11.7 to 22.6 µg/mL) |
| > 76 | NC(=O)Cn1ccc2c(NC(=O)Cc3ccc(Cl)c(C(F)(F)F)c3)cccc2c1=O [Compound 249, 2-{5-[2-(4-Chloro-3-trifluoromethyl-phenyl)-acetylamino]-1-oxo-1H-isoquinolin-2-yl}-acetamide] | solubility [1]: < 25 µM |
| > 76 | C[C@H](C(N)=O)n1ccc2c(NC(=O)[C@H](C)c3ccc(Cl)cc3)cccc2c1=O [Compound 262] | solubility [1]: > 75 µM |
| > 76 | C[C@@H](C(=O)Nc1cccc2c(=O)n([C@@H](C)C(N)=O)ccc12)c1ccc(Cl)cc1 [Compound 266] | solubility [1]: > 75 µM |
| > 76 | CC(C)[C@H](C(N)=O)n1ccc2c(NC(=O)[C@@H](C)c3ccc(Cl)cc3)cccc2c1=O [Compound 283] | solubility [1]: > 75 µM |
| > 76 | CC(C)[C@H](C(N)=O)n1ccc2c(NC(=O)[C@H](C)c3ccc(Cl)cc3)cccc2c1=O [Compound 284, (R)-2-{5-[(R)-2-(4-Chloro-phenyl)-propionylamino]-1-oxo-1H-isoquinolin-2-yl}-3-methyl-butyramide] | solubility [1]: > 75 µM |
| > 76 | C[C@H](C(N)=O)n1ccc2c(NC(=O)Cc3ccc(Cl)c(F)c3)cccc2c1=O [Compound 300] | solubility [1]: < 25 µM |
| > 76 | C[C@H](C(N)=O)n1ccc2c(NC(=O)Cc3ccc(F)c(Cl)c3)cccc2c1=O [Compound 301] | solubility [1]: 26 to 50 µM (≈ 10.4 to 20.1 µg/mL) |
| > 76 | C[C@H](C(N)=O)n1ccc2c(NC(=O)Cc3ccc(F)c(C(F)(F)F)c3)cccc2c1=O [Compound 304] | solubility [1]: < 25 µM |
| > 76 | C[C@H](C(N)=O)n1ccc2c(NC(=O)Cc3ccc(C(F)(F)F)c(F)c3)cccc2c1=O [Compound 306] | solubility [1]: < 25 µM |
| > 76 | C[C@@H](C(N)=O)n1ccc2c(NC(=O)Cc3ccc(F)c(Cl)c3)cccc2c1=O [Compound 346] |  |
| > 76 | C[C@@H](C(N)=O)n1ccc2c(NC(=O)Cc3ccc(C(F)(F)F)c(F)c3)cccc2c1=O [Compound 347] |  |
| > 76 | C[C@@H](C(N)=O)n1ccc2c(NC(=O)Cc3ccc(F)c(C(F)(F)F)c3)cccc2c1=O [Compound 348] |  |
| > 76 | C[C@@H](C(N)=O)n1ccc2c(NC(=O)Cc3cccc(C(F)(F)F)c3F)cccc2c1=O [Compound 349] |  |
| > 76 | C[C@@H](C(N)=O)n1ccc2c(NC(=O)Cc3ccc(Cl)cc3F)cccc2c1=O [Compound 350] |  |
| > 76 | C[C@@H](C(N)=O)n1ccc2c(NC(=O)Cc3ccc(Cl)c(F)c3)cccc2c1=O [Compound 352] |  |
| > 76 | O=C(Cc1ccc(Cl)c(F)c1)Nc1cccc2c(=O)n(CCO)ccc12 [Compound 354] |  |
| > 76 | CC(C(=O)Nc1cccc2c(=O)n([C@@H](C)C(N)=O)ccc12)c1cccc(C(F)(F)F)c1F (stereo partly shown) [Compound 355] |  |
| > 76 | CC(C(=O)Nc1cccc2c(=O)n([C@@H](C)C(N)=O)ccc12)c1ccc(Cl)c(C(F)(F)F)c1 (stereo partly shown) [Compound 356] |  |

| inhibition at 0.3 µM (P2X7 receptor; 0.3 μM compound, "+" symbols) [%] | Structure (SMILES) | also measured |
| --- | --- | --- |
| 0 to 25 | COc1ccc2c(=O)n([C@H](C)CO)ccc2c1NC(=O)Cc1ccc(C(F)(F)F)c(F)c1 [Compound 358] |  |
| 51 to 75 | CC(C)(CO)n1ccc2c(NC(=O)Cc3ccc(C(F)(F)F)cc3)cccc2c1=O [Compound 363] |  |
| > 76 | CC(C)(CO)n1ccc2c(NC(=O)Cc3ccc(C(F)(F)F)c(F)c3)cccc2c1=O [Compound 365] |  |
| 0 to 25 | CC(C)(CO)n1ccc2c(NC(=O)Cc3ccc(C(F)(F)F)cc3C(F)(F)F)cccc2c1=O [Compound 366] |  |
| > 76 | CC(C)(CO)n1ccc2c(NC(=O)Cc3ccc(F)c(C(F)(F)F)c3)cccc2c1=O [Compound 367] |  |
| > 76 | CC(C)(CO)n1ccc2c(NC(=O)Cc3cccc(C(F)(F)F)c3F)cccc2c1=O [Compound 368] |  |
| > 76 | CC(C)(CO)n1ccc2c(NC(=O)Cc3ccc(C(F)(F)F)cc3F)cccc2c1=O [Compound 370] |  |
| 51 to 75 | CC(C)(CO)n1ccc2c(NC(=O)Cc3ccc(Cl)c(Cl)c3)cccc2c1=O [Compound 371] |  |
| 0 to 25 | CC(C)(CO)n1ccc2c(NC(=O)Cc3ccc(F)c(Cl)c3)cccc2c1=O [Compound 372] |  |
| 51 to 75 | CC(C)(CO)n1ccc2c(NC(=O)Cc3ccc(Cl)c(F)c3)cccc2c1=O [Compound 373] |  |
| > 76 | CC(C)(CO)n1ccc2c(NC(=O)Cc3ccc(Cl)cc3F)cccc2c1=O [Compound 374] |  |
| > 76 | C[C@H](CO)n1ccc2c(NC(=O)Cc3ccc(C(F)(F)F)cc3F)c(Cl)ccc2c1=O [Compound 378] |  |
| > 76 | C[C@H](C(N)=O)n1ccc2c(NC(=O)Cc3ccc(F)c(F)c3F)cccc2c1=O [Compound 379] |  |
| > 76 | C[C@H](C(N)=O)n1ccc2c(NC(=O)Cc3ccc(C(F)(F)F)cc3C(F)(F)F)cccc2c1=O [Compound 380] |  |
| > 76 | C[C@H](C(N)=O)n1ccc2c(NC(=O)Cc3cc(F)c(F)c(F)c3)cccc2c1=O [Compound 381] |  |
| > 76 | C[C@H](CO)n1ccc2c(NC(=O)Cc3ccc(C(F)(F)F)c(F)c3)c(C3CC3)ccc2c1=O [Compound 384, N-[6-Cyclopropyl-2-((R)-2-hydroxy-1-methyl-ethyl)-1-oxo-1,2-dihydro-isoquinolin-5-yl]-2-(3-fluoro-4-trifluoromethyl-phenyl)-acetamide] |  |
| 0 to 25 | O=C(Cc1cccc(C(F)(F)F)c1F)Nc1c(NCCO)ccc2c(=O)n(CCO)ccc12 [Compound 385, 2-(2-Fluoro-3-trifluoromethyl-phenyl)-N-[2-(2-hydroxy-ethyl)-6-(2-hydroxy-ethylamino)-1-oxo-1,2-dihydro-isoquinolin-5-yl]-acetamide] |  |
| > 76 | O=C(Cc1cccc(C(F)(F)F)c1F)Nc1c(Cl)ccc2c(=O)n(CCO)ccc12 [Compound 387] |  |
| 0 to 25 | CC(=O)NCCn1ccc2c(NC(=O)Cc3ccc(C(F)(F)F)c(F)c3)cccc2c1=O [Compound 390] | IC50 (P2X7 receptor): > 1000 nM |
| > 76 | CC(=O)NCCn1ccc2c(NC(=O)Cc3ccc(Cl)c(C(F)(F)F)c3)cccc2c1=O [Compound 391] | IC50 (P2X7 receptor): 0.39 nM |
| > 76 | CC(=O)NCCn1ccc2c(NC(=O)Cc3ccc(F)c(F)c3)cccc2c1=O [Compound 392] | IC50 (P2X7 receptor): 0.74 nM |
| > 76 | Cc1ccc2c(=O)n(CCO)ccc2c1NC(=O)Cc1cccc(C(F)(F)F)c1F [Compound 396] | IC50 (P2X7 receptor): 10.7 nM |
